# Results: patent publication US5447942A, “N-derivatives of (phenylethyl-β-ol) amine, a process for their preparation and pharamaceutical compositions containing the same” (Societe de Conseils de Recherches et d'Applications …, priority 1992, dated 1995)
# Like-named read-outs stand apart in the source and are kept apart here.
# Key:
# [1] = target: β adrenoceptors; assay: radioligand binding studies in lung membrane (Table A, binding affinity)
# Source text: The results are summarised in Table A. Generally, the activity is better for the trans than the cis isomer.
# [2] = test system: acetylcholine induced bronchoconstriction; assay: inhibition of acetylcholine induced bronchoconstriction, Konzett and Rossler method (Table B); assay type: in vivo, Male Hartley Guinea Pigs; settings: IV; for inhibition in vivo at 0.46 µmol/kg / inhibition in vivo at 1.5 µmol/kg / inhibition in vivo at 1.6 µmol/kg / inhibition in vivo at 0.47 µmol/kg / inhibition in vivo at 0.13 µmol/kg / inhibition in vivo at 1.48 µmol/kg / inhibition in vivo at 0.42 µmol/kg: Cavia porcellus
# Procedure: Male Hartley Guinea Pigs (450-500 g) were anaesthetised with ethyl carbamate and prepared for recording bronchoconstriction according to Konzett and Rossler method (Naunym Schmiedebergers Arch. Exp. Path. Pharmakol (1940) 195, 71). To abolish spontaneous respiration, an injection IV of vecuronium bromide (2 mg/kg) was made. Bronchoconstriction was induced by IV injection of Acetylcholine and the animals received one dose of β agonist compound (IV) 5 minutes later.
# [3] = 5 min, 0.46 μmol/kg, 5 mn, read-out: bronchoconstriction protection, score 5 mn
# [4] = 5 min, 1.5 μmol/kg, 5 mn, read-out: bronchoconstriction protection, score 5 mn
# [5] = 0.25 h, 0.46 μmol/kg, 15 mn, read-out: bronchoconstriction protection, score 15 mn
# [6] = 0.25 h, 1.5 μmol/kg, 15 mn, read-out: bronchoconstriction protection, score 15 mn
# [7] = 0.5 h, 0.46 μmol/kg, 30 mn, read-out: bronchoconstriction protection, score 30 mn
# [8] = 0.5 h, 1.5 μmol/kg, 30 mn, read-out: bronchoconstriction protection, score 30 mn
# [9] = 5 min, 1.6 μmol/kg, 5 mn, read-out: bronchoconstriction protection, score 5 mn
# [10] = 0.25 h, 1.6 μmol/kg, 15 mn, read-out: bronchoconstriction protection, score 15 mn
# [11] = 0.5 h, 1.6 μmol/kg, 30 mn, read-out: bronchoconstriction protection, score 30 mn
# [12] = 5 min, 0.47 μmol/kg, 5 mn, read-out: bronchoconstriction protection, score 5 mn
# [13] = 0.25 h, 0.47 μmol/kg, 15 mn, read-out: bronchoconstriction protection, score 15 mn
# [14] = 0.5 h, 0.47 μmol/kg, 30 mn, read-out: bronchoconstriction protection, score 30 mn
# [15] = 5 min, 0.13 μmol/kg, 5 mn, read-out: bronchoconstriction protection, score 5 mn
# [16] = 0.25 h, 0.13 μmol/kg, 15 mn, read-out: bronchoconstriction protection, score 15 mn
# [17] = 0.5 h, 0.13 μmol/kg, 30 mn, read-out: bronchoconstriction protection, score 30 mn
structure (smiles),measurement,setting,value
"OCc1cc(C(O)CNC[C@@H]2CC[C@H](c3ccccc3Cl)O2)ccc1O (relative stereo) [Example 4 (cis), 2-(2'-chlorophenyl)-5-[N-[β-(3'-hydroxymethyl-4'-hydroxy-phenyl)-β-hydroxy-ethyl]-aminomethyl]-tetrahydrofuran]",Ki,[1],347 nM
same,"bronchoconstriction protection, duration of action",[2]; 0.46 μmol/kg,10 mn
same,"bronchoconstriction protection, duration of action",[2]; 1.5 μmol/kg,< 40 mn
same,inhibition in vivo at 0.46 µmol/kg,[2]; [3],50 to 75%
same,inhibition in vivo at 1.5 µmol/kg,[2]; [4],50 to 75%
same,inhibition in vivo at 0.46 µmol/kg,[2]; [5],< 20%
same,inhibition in vivo at 1.5 µmol/kg,[2]; [6],50 to 75%
same,inhibition in vivo at 0.46 µmol/kg,[2]; [7],< 20%
same,inhibition in vivo at 1.5 µmol/kg,[2]; [8],20 to 50%
"COc1cc(C2CCC(CNCC(O)c3ccc(O)c(CO)c3)O2)cc(OC)c1OC (single isomer, unassigned) [Example 2 (trans) (-), 2-(3',4',5'-trimethoxyphenyl)-5-[N-[β-(3'-hydroxymethyl-4'-hydroxy-phenyl)-β-hydroxy-ethyl]-aminomethyl]-tetrahydrofuran]",Ki,[1],350 nM
"COc1ccc([C@H]2CC[C@@H](CNCC(O)c3ccc(O)c(CO)c3)O2)cc1 (relative stereo) [Example 9 (cis), 2-(4'-methoxyphenyl)-5-[N-[β-(3'-hydroxymethyl-4'-hydroxy-phenyl)-β-hydroxy-ethyl]-aminomethyl]-tetrahydrofuran]",Ki,[1],810 nM
same,"bronchoconstriction protection, duration of action",[2]; 0.46 μmol/kg,20 mn
same,inhibition in vivo at 0.46 µmol/kg,[2]; [3],50 to 75%
same,inhibition in vivo at 0.46 µmol/kg,[2]; [5],20 to 50%
same,inhibition in vivo at 0.46 µmol/kg,[2]; [7],< 20%
"COc1cc(C2CCC(CNCC(O)c3ccc(O)c(CO)c3)O2)cc(OC)c1OC (single isomer, unassigned) [Example 2 (trans) (+), 2-(3',4',5'-trimethoxyphenyl)-5-[N-[β-(3'-hydroxymethyl-4'-hydroxy-phenyl)-β-hydroxy-ethyl]-aminomethyl]-tetrahydrofuran]",Ki,[1],50 nM
"OCc1cc(C(O)CNCCCC2CCC(c3ccccc3Cl)O2)ccc1O (stereo not drawn) [Example 16, 2-(2'-chlorophenyl)-5-[N-[β-(3'-hydroxymethyl-4'-hydroxy-phenyl)-β-hydroxy-ethyl]-aminopropyl]-tetrahydrofuran]",Ki,[1],570 nM
same,"bronchoconstriction protection, duration of action",[2]; 1.6 μmol/kg,> 15 mn
same,inhibition in vivo at 1.6 µmol/kg,[2]; [9],20 to 50%
same,inhibition in vivo at 1.6 µmol/kg,[2]; [10],20 to 50%
same,inhibition in vivo at 1.6 µmol/kg,[2]; [11],< 20%
COc1cc(C2CC(CNCC(O)c3ccc(O)c(CO)c3)CO2)cc(OC)c1OC (stereo not drawn) [Example 18],Ki,[1],1600 nM
same,"bronchoconstriction protection, duration of action",[2]; 1.6 μmol/kg,30 mn
same,inhibition in vivo at 1.6 µmol/kg,[2]; [9],50 to 75%
same,inhibition in vivo at 1.6 µmol/kg,[2]; [10],20 to 50%
same,inhibition in vivo at 1.6 µmol/kg,[2]; [11],20 to 50%
"COc1cc([C@H]2CC[C@@H](CCNCC(O)c3ccc(O)c(CO)c3)O2)cc(OC)c1OC (relative stereo) [Example 14 (cis), 2-(3',4',5'-trimethoxyphenyl)-5-[N-[β-(3'-hydroxymethyl-4'-hydroxy-phenyl)-β-hydroxy-ethyl]-aminoethyl]-tetrahydrofuran]",Ki,[1],1900 nM
same,"bronchoconstriction protection, duration of action",[2]; 1.5 μmol/kg,30 mn
same,inhibition in vivo at 1.5 µmol/kg,[2]; [4],> 75%
same,inhibition in vivo at 1.5 µmol/kg,[2]; [6],20 to 50%
same,inhibition in vivo at 1.5 µmol/kg,[2]; [8],20 to 50%
"OCc1cc(C(O)CNC[C@H]2CC[C@H](c3cccc(Cl)c3)O2)ccc1O (relative stereo) [Example 5 (trans), 2-(3'-chlorophenyl)-5-[N-[β-(3'-hydroxymethyl-4'-hydroxy-phenyl)-β-hydroxy-ethyl]-aminomethyl]-tetrahydrofuran]",Ki,[1],750 nM
same,"bronchoconstriction protection, duration of action",[2]; 0.46 μmol/kg,> 20 mn
same,inhibition in vivo at 0.46 µmol/kg,[2]; [3],50 to 75%
same,inhibition in vivo at 0.46 µmol/kg,[2]; [5],20 to 50%
same,inhibition in vivo at 0.46 µmol/kg,[2]; [7],20 to 50%
"OCc1cc(C(O)CNCC2CCC(c3ccccc3F)O2)ccc1O (stereo not drawn) [Example 6, 2-(2'-fluorophenyl)-5-[N-[β-(3'-hydroxymethyl-4'-hydroxy-phenyl)-β-hydroxy-ethyl]-aminomethyl]-tetrahydrofuran]",Ki,[1],1800 nM
same,"bronchoconstriction protection, duration of action",[2]; 0.47 μmol/kg,< 30 mn
same,inhibition in vivo at 0.47 µmol/kg,[2]; [12],50 to 75%
same,inhibition in vivo at 0.47 µmol/kg,[2]; [13],20 to 50%
same,inhibition in vivo at 0.47 µmol/kg,[2]; [14],20 to 50%
"COc1ccc([C@H]2CC[C@H](CNCC(O)c3ccc(O)c(CO)c3)O2)cc1OC (relative stereo) [Example 8 (trans), 2-(3',4'-dimethoxyphenyl)-5-[N-[β-(3'-hydroxymethyl-4'-hydroxy-phenyl)-β-hydroxyethyl]-aminomethyl]-tetrahydrofuran]",Ki,[1],1050 nM
same,"bronchoconstriction protection, duration of action",[2]; 0.13 μmol/kg,30 mn
same,"bronchoconstriction protection, duration of action",[2]; 0.46 μmol/kg,> 30 mn
same,inhibition in vivo at 0.13 µmol/kg,[2]; [15],50 to 75%
same,inhibition in vivo at 0.46 µmol/kg,[2]; [3],50 to 75%
same,inhibition in vivo at 0.13 µmol/kg,[2]; [16],20 to 50%
same,inhibition in vivo at 0.46 µmol/kg,[2]; [5],50 to 75%
same,inhibition in vivo at 0.13 µmol/kg,[2]; [17],20 to 50%
same,inhibition in vivo at 0.46 µmol/kg,[2]; [7],20 to 50%
"OCc1cc(C(O)CNC[C@@H]2CC[C@H](c3cccc(Cl)c3)O2)ccc1O (relative stereo) [Example 5 (cis), 2-(3'-chlorophenyl)-5-[N-[β-(3'-hydroxymethyl-4'-hydroxy-phenyl)-β-hydroxy-ethyl]-aminomethyl]-tetrahydrofuran]",Ki,[1],760 nM
same,"bronchoconstriction protection, duration of action",[2]; 0.47 μmol/kg,< 10 mn
same,inhibition in vivo at 0.47 µmol/kg,[2]; [12],20 to 50%
same,inhibition in vivo at 0.47 µmol/kg,[2]; [13],< 20%
same,inhibition in vivo at 0.47 µmol/kg,[2]; [14],< 20%
"CCCC1CCC(CNCC(O)c2ccc(O)c(CO)c2)O1 (stereo not drawn) [Example 11, 2-propyl-5-[N-[β-(3'-hydroxymethyl-4'-hydroxy-phenyl)-β-hydroxy-ethyl]-aminomethyl]-tetrahydrofuran]",Ki,[1],520 nM
"OCc1cc(C(O)CNC[C@H]2CC[C@H](c3ccccc3Cl)O2)ccc1O (relative stereo) [Example 4 (trans), 2-(2'-chlorophenyl)-5-[N-[β-(3'-hydroxymethyl-4'-hydroxy-phenyl)-β-hydroxy-ethyl]-aminomethyl]-tetrahydrofuran]",Ki,[1],400 nM
same,"bronchoconstriction protection, duration of action",[2]; 0.46 μmol/kg,10 mn
same,"bronchoconstriction protection, duration of action",[2]; 1.48 μmol/kg,> 25 mn
same,inhibition in vivo at 0.46 µmol/kg,[2]; [3],> 75%
same,inhibition in vivo at 1.48 µmol/kg,"[2]; 5 min, 1.48 μmol/kg, 5 mn, read-out: bronchoconstriction protection, score 5 mn",> 75%
same,inhibition in vivo at 0.46 µmol/kg,[2]; [5],< 20%
same,inhibition in vivo at 1.48 µmol/kg,"[2]; 0.25 h, 1.48 μmol/kg, 15 mn, read-out: bronchoconstriction protection, score 15 mn",50 to 75%
same,inhibition in vivo at 0.46 µmol/kg,[2]; [7],< 20%
same,inhibition in vivo at 1.48 µmol/kg,"[2]; 0.5 h, 1.48 μmol/kg, 30 mn, read-out: bronchoconstriction protection, score 30 mn",50 to 75%
"OCc1cc(C(O)CNCC2CCC(c3ccncc3)O2)ccc1O (stereo not drawn) [Example 12, 2-(4'-pyridyl)-5-[N-[β-(3'-hydroxymethyl-4'-hydroxy-phenyl)-β-hydroxy-ethyl]-aminomethyl]-tetrahydrofuran]",Ki,[1],350 nM
same,"bronchoconstriction protection, duration of action",[2]; 0.13 μmol/kg,> 30 mn
same,"bronchoconstriction protection, duration of action",[2]; 0.42 μmol/kg,> 30 mn
same,inhibition in vivo at 0.13 µmol/kg,[2]; [15],50 to 75%
same,inhibition in vivo at 0.42 µmol/kg,"[2]; 5 min, 0.42 μmol/kg, 5 mn, read-out: bronchoconstriction protection, score 5 mn",50 to 75%
same,inhibition in vivo at 0.13 µmol/kg,[2]; [16],20 to 50%
same,inhibition in vivo at 0.42 µmol/kg,"[2]; 0.25 h, 0.42 μmol/kg, 15 mn, read-out: bronchoconstriction protection, score 15 mn",50 to 75%
same,inhibition in vivo at 0.13 µmol/kg,[2]; [17],20 to 50%
same,inhibition in vivo at 0.42 µmol/kg,"[2]; 0.5 h, 0.42 μmol/kg, 30 mn, read-out: bronchoconstriction protection, score 30 mn",20 to 50%
"COc1cc([C@H]2CC[C@@H](CCCNCC(O)c3ccc(O)c(CO)c3)O2)cc(OC)c1OC (relative stereo) [Example 15 (cis), 2-(3',4',5'-trimethoxyphenyl)-5-[-N-[β-(3'-hydroxymethyl-4'-hydroxy-phenyl)-β-hydroxy-ethyl]-aminopropyl]-tetrahydrofuran]",Ki,[1],1900 nM
